# Results: patent publication US7745575B1 (Cellpep Pharma Inc., priority 2004, dated 2010)
# “And” between values parts separate entries of the source, which are not always exact repeats. Equal values may be shown once. “Also recorded” adds a separate entry of the source. Bridge positions count the residues as written; N and C are the ends. Ends that are not written are not given here. Peptide text beside a SMILES is read from it.
# T1: hKv3.2 (human (only by the printed prefix h), UniProt Q96PR1)
# T1 sequence: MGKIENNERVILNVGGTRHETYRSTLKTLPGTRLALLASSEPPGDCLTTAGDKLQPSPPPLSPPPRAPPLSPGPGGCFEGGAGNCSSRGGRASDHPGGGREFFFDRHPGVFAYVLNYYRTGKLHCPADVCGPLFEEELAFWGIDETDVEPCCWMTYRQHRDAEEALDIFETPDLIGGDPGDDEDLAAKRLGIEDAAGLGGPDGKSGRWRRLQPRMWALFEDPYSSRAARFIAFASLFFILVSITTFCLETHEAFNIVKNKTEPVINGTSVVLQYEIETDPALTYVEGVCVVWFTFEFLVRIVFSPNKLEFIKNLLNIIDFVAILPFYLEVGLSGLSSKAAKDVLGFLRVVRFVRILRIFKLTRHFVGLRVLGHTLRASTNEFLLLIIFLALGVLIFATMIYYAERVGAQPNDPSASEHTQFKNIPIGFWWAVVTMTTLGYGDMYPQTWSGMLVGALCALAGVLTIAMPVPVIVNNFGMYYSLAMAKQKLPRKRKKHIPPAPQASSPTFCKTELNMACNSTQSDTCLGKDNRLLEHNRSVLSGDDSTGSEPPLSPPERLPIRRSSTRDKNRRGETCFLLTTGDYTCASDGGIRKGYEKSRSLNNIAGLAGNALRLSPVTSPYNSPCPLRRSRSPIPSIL
# Assays:
# [1] = toxicity in vivo, LD50 after intracerebroventricular injection; settings: mouse, icv or intrathecal, 20 g C57/BL6 mice
# Description: Groups of six to eight mice per dose were injected with 5 μl peptide solution containing 0.1% (w/v) bovine serum albumin and 0.9% (w/v) NaCl. The LD50 values are set out in Table 5.
# mKv1.3 = mKv1.3 (Mus musculus, UniProt P16390); experiment: patch-clamp whole-cell recording, K+ current block; type: cell-based
# Description: Electrophysiological experiments were carried out at 22-24° C. using the patch-clamp whole-cell recording mode. Cells were bathed with mammalian Ringer's solution (in mM): 160 NaCl, 4.5 KCl, 2 CaCl2, 1 MgCl2, and 10 HEPES (pH 7.4 with NaOH), with an osmolarity of 290-320 mOsm. […] A syringe-driven perfusion device was used to exchange the external recording bath solution. Two internal pipette solutions were used, one for measuring voltage-gated K^+ currents that contained (in mM): 155 KF, 2 MgCl2, 10 HEPES, and 10 EGTA (pH 7.2 with KOH), with an osmolarity of 290-320 mOsm and another for measuring Ca^2+-activated K^+ currents that contained (in mM): 135 K-aspartate, 8.7 CaCl2, 2 MgCl2, 10 EGTA, 10 HEPES (pH 7.2 with KOH), with an osmolarity of 290-320 mOsm. A free [Ca^2+]i of 1 μM was calculated. All currents through voltage-gated K^+ channels were elicited by 200 ms depolarising voltage steps from −80 to +40 mV. Potassium currents through KCa1.1, KCa2.1 and KCa3.1 were elicited by 1 μM internal [Ca^2+]i and 400 ms voltage ramps from −120 to 0 mV (for KCa3.1 channel and KCa1.1 channel) and from −120 to +40 mV (for KCa2.1 channel). Electrodes were pulled from glass capillaries (Science Products, Germany), and fire-polished to resistances of 2.5-5 MΩ. Membrane currents were measured with an EPC-9 or EPC-10 patch-clamp amplifier (HEKA Elektronik, Lambrecht, Germany) interfaced to a Macintosh computer running acquisition and analysis software (Pulse and PulseFit). When voltage-gated K^+ currents were measured, the capacitive and leak currents were subtracted using a P/10 procedure. Series resistance compensation (>80%) was used for currents above 2 nA. The holding potential was −80 mV in all experiments.
# [2] = system: Lewis rats immunized with spinal cord homogenate; experiment: treatment of chronic relapsing EAE, osmotic pump IP; type: in vivo; settings: MTx 50 nM
# Description: Each rat received 200 μl of emulsion sc, divided in the rear footpads, on day 0. Eight days later, as their body weight decreased, a precursor sign for clinical EAE, an osmotic pump was implanted IP. The pump delivered drugs at 1 μl/h for 8 days. They were filled with the peptide blockers, dissolved in Na Cl 0.15 M containing 2% Lewis serum, as vehicle.
# Clinical evaluation. The severity of the disease was scored on a scale of 0 to 6, with 0.5 points for intermediate clinical findings (0: no clinical signs; 1.0: limp tail; 2.0: mild paraparesis and ataxia; 3.0: moderate paraparesis; 4.0: complete hind limb paralysis; 5.0: paralysis+incontinence; 5.5: tetraplegia; 6.0: moribund or death). Rats were weighed every day. Rats showing no clinical signs of EAE and no weight loss were excluded from the studies. The beneficial effects of K^+ blockers on EAE were evaluated by a reduction in clinical severity and in duration of the disease and in number of relapses compared with those of rats treated with the vehicle only, 0.15 M NaCl.
# Data analysis. Statistical analysis was conducted using the Mann-Whitney U test. Mean differences between groups were considered significant at values of P<0.05.
# hKv3.2 = molecular target: T1, hKv3.2; experiment: cell-based or functional assay
# hKv1.2 = hKv1.2 (human (only by the printed prefix h), UniProt P16389); experiment: cell-based or functional assay
# Sequence of mKv1.3 (P16390 whole entry, the tested form may be a part): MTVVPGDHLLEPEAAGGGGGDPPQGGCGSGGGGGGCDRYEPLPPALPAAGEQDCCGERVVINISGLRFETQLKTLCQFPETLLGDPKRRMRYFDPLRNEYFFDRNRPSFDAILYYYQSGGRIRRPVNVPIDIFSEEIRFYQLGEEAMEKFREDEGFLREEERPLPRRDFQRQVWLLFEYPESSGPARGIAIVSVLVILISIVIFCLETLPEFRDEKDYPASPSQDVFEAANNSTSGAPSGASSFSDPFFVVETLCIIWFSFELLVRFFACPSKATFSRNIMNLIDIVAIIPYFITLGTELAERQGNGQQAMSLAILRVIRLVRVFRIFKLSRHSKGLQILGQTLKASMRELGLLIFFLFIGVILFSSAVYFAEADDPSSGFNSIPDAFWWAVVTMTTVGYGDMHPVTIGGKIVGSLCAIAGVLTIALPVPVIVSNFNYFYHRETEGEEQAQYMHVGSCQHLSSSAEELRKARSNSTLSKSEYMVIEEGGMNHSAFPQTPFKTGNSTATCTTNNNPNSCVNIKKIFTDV
Molecule,LD50 [1] [µg/kg],ID50 (hKv3.2) [nM],further results
CC[C@H](C)[C@@H]1NC(=O)[C@H](CCCCN)NC(=O)[C@@H](NC(=O)[C@H](CCCCN)NC(=O)[C@@H](NC(=O)[C@H](CC(N)=O)NC(=O)[C@@H](NC(=O)[C@@H](NC(=O)[C@@H](NC(=O)CN)C(C)C)[C@@H](C)CC)[C@@H](C)CC)C(C)C)CSSC[C@@H]2NC(=O)[C@H](CCCCN)NC(=O)CNC(=O)[C@H](Cc3ccccc3)NC(=O)[C@H](CCCNC(=N)N)NC(=O)[C@H](CCSC)NC(=O)CNC(=O)[C@H](C)NC(=O)[C@H](CCCCN)NC(=O)[C@H](CCCCN)NC(=O)[C@@H]3CSSC[C@@H](C(=O)N[C@H](C(=O)N4CCC[C@H]4C(=O)N[C@@H](CCCCN)C(N)=O)[C@@H](C)O)NC(=O)[C@H](Cc4c[nH]cn4)NC(=O)[C@H](CSSC[C@H](NC(=O)[C@H](CCC(N)=O)NC(=O)[C@H](CCCNC(=N)N)NC(=O)[C@H](CO)NC1=O)C(=O)N[C@@H](CC(C)C)C(=O)N[C@@H](CCC(=O)O)C(=O)N1CCC[C@H]1C(=O)N3)NC(=O)[C@H](CCCCN)NC(=O)CNC(=O)[C@H](CC(N)=O)NC(=O)[C@H](CCSC)NC2=O [OsK1-NH2],3.5,,
"CC[C@H](C)[C@@H]1NC(=O)[C@H](CCCCN)NC(=O)[C@@H](NC(=O)[C@H](CCCCN)NC(=O)[C@@H](NC(=O)[C@H](CC(N)=O)NC(=O)[C@@H](NC(=O)[C@@H](NC(=O)[C@@H](NC(=O)CN)C(C)C)[C@@H](C)CC)[C@@H](C)CC)C(C)C)CSSC[C@@H]2NC(=O)[C@H](CCCCN)NC(=O)CNC(=O)[C@H](Cc3ccccc3)NC(=O)[C@H](CCCNC(=N)N)NC(=O)[C@H](CCSC)NC(=O)CNC(=O)[C@H](C)NC(=O)[C@H](CCCCN)NC(=O)[C@H](CCCCN)NC(=O)[C@@H]3CSSC[C@@H](C(=O)N[C@H](C(=O)N4CCC[C@H]4C(=O)N[C@@H](CCCCN)C(=O)O)[C@@H](C)O)NC(=O)[C@H](C)NC(=O)[C@H](CSSC[C@H](NC(=O)[C@H](CCC(N)=O)NC(=O)[C@H](CCCNC(=N)N)NC(=O)[C@H](CO)NC1=O)C(=O)N[C@@H](CC(C)C)C(=O)N[C@@H](CCC(=O)O)C(=O)N1CCC[C@H]1C(=O)N3)NC(=O)[C@H](CCCCN)NC(=O)CNC(=O)[C@H](CC(N)=O)NC(=O)[C@H](CCSC)NC2=O [[A^34]-OsK1] (H-GVIINVKCKISRQCLEPCKKAGMRFGKCMNGKCACTPK-OH; disulfide 8-28, 14-33, 18-35)",10,,
"CC[C@H](C)[C@@H]1NC(=O)[C@H](CCCCN)NC(=O)[C@@H](NC(=O)[C@H](CCCCN)NC(=O)[C@@H](NC(=O)[C@H](CC(N)=O)NC(=O)[C@@H](NC(=O)[C@@H](NC(=O)[C@@H](NC(=O)CN)C(C)C)[C@@H](C)CC)[C@@H](C)CC)C(C)C)CSSC[C@@H]2NC(=O)[C@H](CCCCN)NC(=O)CNC(=O)[C@H](Cc3ccccc3)NC(=O)[C@H](CCCNC(=N)N)NC(=O)[C@H](CCSC)NC(=O)CNC(=O)[C@H](C)NC(=O)[C@H](CC(=O)O)NC(=O)[C@H](CCCCN)NC(=O)[C@@H]3CSSC[C@@H](C(=O)N[C@H](C(=O)N4CCC[C@H]4C(=O)N[C@@H](CCCCN)C(=O)O)[C@@H](C)O)NC(=O)[C@H](Cc4c[nH]cn4)NC(=O)[C@H](CSSC[C@H](NC(=O)[C@H](CCC(N)=O)NC(=O)[C@H](CCCNC(=N)N)NC(=O)[C@H](CO)NC1=O)C(=O)N[C@@H](CC(C)C)C(=O)N[C@@H](CCC(=O)O)C(=O)N1CCC[C@H]1C(=O)N3)NC(=O)[C@H](CCCCN)NC(=O)CNC(=O)[C@H](CC(N)=O)NC(=O)[C@H](CCSC)NC2=O [[D^20]-OsK1] (H-GVIINVKCKISRQCLEPCKDAGMRFGKCMNGKCHCTPK-OH; disulfide 8-28, 14-33, 18-35)",4.5,,
"CC[C@H](C)[C@@H]1NC(=O)[C@H](CCCCN)NC(=O)[C@@H](NC(=O)[C@H](CCCCN)NC(=O)[C@@H](NC(=O)[C@H](CC(N)=O)NC(=O)[C@@H](NC(=O)[C@@H](NC(=O)[C@@H](NC(=O)CN)C(C)C)[C@@H](C)CC)[C@@H](C)CC)C(C)C)CSSC[C@@H]2NC(=O)[C@H](CCCCN)NC(=O)CNC(=O)[C@H](Cc3ccccc3)NC(=O)[C@H](CCCNC(=N)N)NC(=O)[C@H](CCSC)NC(=O)CNC(=O)[C@H](C)NC(=O)[C@H](CCCCN)NC(=O)[C@H](CCCCN)NC(=O)[C@@H]3CSSC[C@@H](C(=O)N[C@H](C(=O)N4CCC[C@H]4C(=O)N[C@@H](CCCCN)C(=O)O)[C@@H](C)O)NC(=O)[C@H](Cc4c[nH]cn4)NC(=O)[C@H](CSSC[C@H](NC(=O)[C@H](CCC(N)=O)NC(=O)[C@H](CCCNC(=N)N)NC(=O)[C@H](CO)NC1=O)C(=O)N[C@@H](CC(C)C)C(=O)N[C@@H](CCCCN)C(=O)N1CCC[C@H]1C(=O)N3)NC(=O)[C@H](CCCCN)NC(=O)CNC(=O)[C@H](CC(N)=O)NC(=O)[C@H](CCSC)NC2=O [[K^16]-OsK1] (H-GVIINVKCKISRQCLKPCKKAGMRFGKCMNGKCHCTPK-OH; disulfide 8-28, 14-33, 18-35)",3,,IC50 (mKv1.3): 0.067 ± 0.006 nM
"CC[C@H](C)[C@@H]1NC(=O)[C@H](CCCCN)NC(=O)[C@@H](NC(=O)[C@H](CCCCN)NC(=O)[C@@H](NC(=O)[C@H](CC(N)=O)NC(=O)[C@@H](NC(=O)[C@@H](NC(=O)[C@@H](N)C(C)C)[C@@H](C)CC)[C@@H](C)CC)C(C)C)CSSC[C@@H]2NC(=O)[C@H](CCCCN)NC(=O)CNC(=O)[C@H](Cc3ccccc3)NC(=O)[C@H](CCCNC(=N)N)NC(=O)[C@H](CCSC)NC(=O)CNC(=O)[C@H](C)NC(=O)[C@H](CCCCN)NC(=O)[C@H](CCCCN)NC(=O)[C@@H]3CSSC[C@@H](C(=O)N[C@H](C(=O)N4CCC[C@H]4C(=O)N[C@@H](CCCCN)C(N)=O)[C@@H](C)O)NC(=O)[C@H](Cc4c[nH]cn4)NC(=O)[C@H](CSSC[C@H](NC(=O)[C@H](CCC(N)=O)NC(=O)[C@H](CCCNC(=N)N)NC(=O)[C@H](CO)NC1=O)C(=O)N[C@@H](CC(C)C)C(=O)N[C@@H](CCC(=O)O)C(=O)N1CCC[C@H]1C(=O)N3)NC(=O)[C@H](CCCCN)NC(=O)CNC(=O)[C@H](CC(N)=O)NC(=O)[C@H](CCSC)NC2=O [[Δ^1]-OsK1-NH2] (H-VIINVKCKISRQCLEPCKKAGMRFGKCMNGKCHCTPK-NH2; disulfide 7-27, 13-32, 17-34)",7,,
VSCTGSKDCYAPCRKQTGCPNA-KCINK-SCKCYGC [MTx],,,"Incid [2]: 100%; Max Clin Sc, Mean ± SD ([2]; group mean, scale 0 to 6): 2.2 ± 1.5; Duration (days), first episode of EAE ([2]; individual rats): chronic (3×) and 11 days; Onset (day), first episode of EAE ([2]; individual rats): d11 day; also recorded: d8 day; also recorded: d7 day; Max Clin Sc ([2]; individual rats, scale 0 to 6): 4 and 1 (2×) and 3"
GVIINVKCKISRQCLEPCKKAGMRFGKCMNGKCHCTPK-NH2 (ends and bridges not checked) [OsK1-NH2],,> 1000,ID50 (hKv1.2): 26 nM
Ac-GVIINVKCKISRQCLEPCKKAGMRFGKCMNGKCHCTPK-NH2 (ends and bridges not checked) [Ac-OsK1-NH2],,> 1000,ID50 (hKv1.2): ~1300 nM
GVIINVKCKISRQCLEPCKKAGMRFGKCMNGKCHCTPK [OsK1],,> 1000,
